In patent US20220024882A1, “NOVEL TUMOR ANTIGEN BINDING AGENTS AND USES THEREOF” (ITM Isotopen Technologien München AG, priority 2018, published 2022):
“And” between values parts separate entries of the source, which are not always exact repeats. Equal values may be shown once.

Columns and labels:
[1] = Whole-body activity measurements, non-tumor bearing mice; assay type: in vivo; details: 4 h after injection, 25 MBq, 1 nmol i.v.
Procedure: All albumin-binding radioligands (molar activity: 25 MBq/nmol) were diluted in 0.9% NaCl containing 0.05% BSA and i.v. injected into non-tumor bearing mice (25 MBq, 1 nmol, 100 μL). The mice were measured in a dose calibrator at various time-points up to 56 h p.i. The radioligands were compared with previously obtained data from ^177Lu-PSMA-617.

[2] = tested on: PSMA-positive PC-3 PIP tumor-bearing mice; test: In vivo therapy study; design: species or system athymic nude BALB/c mice; details: for first mouse of group euthanized / median survival / TGDI5 (tumor growth delay index, 5-fold increase of tumor size): 1 nmol per mouse; for TGDI5 (tumor growth delay index, 5-fold increase of tumor size): controls = 1.0
Procedure: Mice were obtained from Charles River Laboratories, Sulzfeld, Germany, at the age of 5-6 weeks. Female, athymic nude BALB/c mice were subcutaneously inoculated with PSMA-positive PC-3 PIP cells (4×10^6 cells in 100 μL Hank's balanced salt solution (HBSS)) on the right shoulder. Six days later, the tumors reached a size of about 30-160 mm^3 suitable for the performance of the in vivo therapy study. Mice were euthanized when a predefined endpoint criterion was reached or when the study was finalized at Day 84. Endpoint criteria were defined as (i) body weight loss of >15%, (ii) a tumor volume of >800 mm^3 (iii) a combination of body weight loss of >10% and a tumor volume of >700 mm^3 or (iv) signs of unease and pain or a combination thereof.
Six days after subcutaneous inoculation of 4×10^6 PC-3 PIP tumor cells inoculation, three groups with statistically similar body weight and tumor volumes were intravenously injected. One group was injected with only the vehicle (saline containing 0.05% bovine serum albumin (BSA); Group A; n=6), and another two groups with ^177Lu-Ibu-DAB-PSMA (Group B: 2 MBq, 1 nmol (n=6) and Group C: 5 MBq, 1 nmol (n=6)) at Day 0 of the therapy study (Table 7). The monitoring of mice and the assessment of the therapy study was conducted as described by Eiber et al., J. Nucl. Med., 2017, 58 (Suppl. 2) 67S-76S). In short, the mice were monitored by measuring body weight and tumor size every second day over a period of 12 weeks. The relative body weight (RBW) was defined as [BWx/BW0], where BWx is the body weight in grams at a given Day x and BW0 is the body weight in grams at Day 0. The tumor dimensions were determined by measuring the longest tumor axis (L) and its perpendicular axis (W) with a digital caliper. The tumor volume (V) was calculated according to the equation [V=0.5×(LW^2)]. The relative tumor volume (RTV) was defined as [TVx/TV0], where TVx is the tumor volume in mm^3 at a given day x, and TV0 is the tumor volume in mm^3 at Day 0.
The efficacy of the radionuclide therapy was expressed as the tumor growth delay (TGDx), which was calculated as the time required for the tumor volume to increase x-fold over the initial volume at Day 0. The tumor growth delay index [TGDIx=TGDx(T)/TGDx(C)] was calculated as the TGDx ratio of treated mice (T) over the TGDx average of control mice (C) for a 5-fold (x=5, TGD5) increase of the initial tumor volume. The median survival was calculated using GraphPad Prism software (version 7). Survival of mice was assessed using Kaplan-Meier curves to determine median survival of mice of each group using Graph Pad Prism software (version 7).

[3] = tested on: PC-3 PIP/flu tumor-bearing mice; test: Biodistribution study in PC-3 PIP/flu tumor-bearing mice; assay type: in vivo, athymic nude Balb/c mice; details: for PC-3 flu Tumor: PSMA-negative tumor xenograft; for PC-3 flu Tumor / PC-3 PIP Tumor: mice; for PC-3 PIP Tumor: PSMA-positive tumor xenograft
Procedure: (§1) In vivo experiments were approved by the local veterinarian department and conducted in accordance with the Swiss law of animal protection. Mice were obtained from Charles River Laboratories, Sulzfeld, Germany, at the age of 5-6 weeks. Female, athymic nude Balb/c mice were subcutaneously inoculated with PSMA-positive PC-3 PIP cells (6×10^6 cells in 100 μL Hank's balanced salt solution (HBSS) with Ca^2+/Mg^2+) on the right shoulder and with PSMA-negative PC-3 flu cells (5×10^6 cells in 100 μL HBSS Ca^2+/Mg^2+) on the left shoulder. Two weeks later, the tumors reached a size of about 80-300 mm^3 suitable for the performance of the biodistribution studies.
Biodistribution studies were performed 12-15 days after PC-3 PIP/flu tumor cell inoculation. […] The radioligands were injected in a lateral tail vein in a volume of 100-200 μL. Mice were euthanized at different time points after injection (p.i.) of the radioligands. Selected tissues and organs were collected, weighed and measured using a γ-counter. The results were decay-corrected and listed as a percentage of the injected activity per gram of tissue mass (% IA/g) (Table 3 and 4).
Mice were obtained from Charles River Laboratories, Sulzfeld, Germany, at the age of 5-6 weeks. Female, athymic nude BALB/c mice were subcutaneously inoculated with PSMA-positive PC-3 PIP cells (6×10^6 cells in 100 μL Hank's balanced salt solution (HBSS)) on the right shoulder and with PSMA-negative PC-3 flu cells (5×10^6 cells in 100 μL HBSS) on the left shoulder. Two weeks later, the tumors reached a size of about 80-300 mm^3 suitable for the performance of the biodistribution and imaging studies.
Biodistribution studies were performed 12-15 days after PC-3 PIP/flu tumor cell inoculation. ^177Lu-Ibu-sPSMA was diluted in 0.9% NaCl containing 0.05% bovine serum albumin (BSA) to prevent adhesion to the vial and syringe material. The radioligand was injected in a lateral tail vein in a volume of 100 μL. Mice were euthanized at different time points after injection (p.i.) of the radioligand. Selected tissues and organs were collected, weighed and measured using a γ-counter. The results were decay-corrected and listed as a percentage of the injected activity per gram of tissue mass (% IA/g) (Table 6, FIG. 18).

[4] = Whole-body activity measurements, tumor-bearing mice; assay type: in vivo, athymic nude Balb/c mice; details: 4 h p.i., 30 MBq, 1 nmol i.v., activity right after injection = 100%
Procedure: as §1, with “imaging” for “biodistribution”
The single radioligands (specific activity: 30 MBq/nmol) were diluted in 0.9% NaCl containing 0.05% bovine serum albumin (BSA) and i.v. injected into PC-3 PIP/flu tumor bearing mice (30 MBq, 1 nmol, 100 μL) for SPECT/CT imaging purposes. The mice were measured in a dose calibrator at 4 h, 24 h, 48 h and 72 h p.i., respectively.

[5] = 4 h p.i., PC-3 PIP/flu tumor-bearing mice
[6] = 24 h p.i., PC-3 PIP/flu tumor-bearing mice

SMILES: CC(C)Cc1ccc(C(C)C(=O)NC(CCN)C(=O)NCCCCC(NC(=O)CN2CCN(CC(=O)O)CCN(CC(=O)O)CCN(CC(=O)O)CC2)C(=O)NCC2CCC(C(=O)NC(Cc3ccc4ccccc4c3)C(=O)NCCCCC(NC(=O)NC(CCC(=O)O)C(=O)O)C(=O)O)CC2)cc1 (stereo not shown) [^177Lu-Ibu-DAB-PSMA, metal not drawn]
- whole-body retained activity [1]: 18%
- first mouse of group euthanized ([2]; 2 MBq): 26 days
- median survival ([2]; 2 MBq): 34 days
- TGDI5 (tumor growth delay index, 5-fold increase of tumor size) ([2]; 2 MBq): 1.6 and 1.6 ± 0.4
- average relative body weight at the time of euthanasia ([2]; 5 MBq per mouse): 1.06±0.10
- day on which the two mice with tumor regrowth reached the endpoint ([2]; 5 MBq per mouse): 70 days and 82 days
- mice of the group in which the tumors disappeared entirely ([2]; 5 MBq per mouse, n=6): four
- mice still alive at the end of the study at Day 84 ([2]; 5 MBq per mouse, n=6): four
- first mouse of group euthanized ([2]; 5 MBq): 70 days
- TGDI5 (tumor growth delay index, 5-fold increase of tumor size) ([2]; 5 MBq): not defined
- median survival ([2]; 5 MBq, study end Day 84): undefined
- Blood [3, 5]: 3.66 ± 0.45 % IA/g
- Bone [3, 5]: 0.62 ± 0.08 % IA/g
- Heart [3, 5]: 1.32 ± 0.10 % IA/g
- Intestines [3, 5]: 0.71 ± 0.05 % IA/g
- Kidneys [3, 5]: 19.4±1.84 % IA/g
- Liver [3, 5]: 1.50 ± 0.12 % IA/g
- Lung [3, 5]: 2.40 ± 0.31 % IA/g
- Muscle [3, 5]: 0.54 ± 0.09 % IA/g
- Salivary glands [3, 5]: 0.86 ± 0.38 % IA/g
- Spleen [3, 5]: 1.14 ± 0.11 % IA/g
- Stomach [3, 5]: 0.62 ± 0.12 % IA/g
- Tumor-to-blood [3, 5]: 18.2 ± 2.69
- Tumor-to-kidney [3, 5]: 3.01 ± 0.49
- Tumor-to-liver [3, 5]: 44.6 ± 8.41
- PC-3 flu Tumor ([3]; 4 h p.i.): 1.19 ± 0.30 % IA/g
- PC-3 PIP Tumor ([3]; 4 h p.i.): 66.2 ± 11.0 % IA/g
- Bone [3, 6]: 0.09 ± 0.02 % IA/g
- Heart [3, 6]: 0.10 ± 0.01 % IA/g
- Intestines [3, 6]: 0.11 ± 0.03 % IA/g
- Kidneys [3, 6]: 6.00±0.68 % IA/g
- Liver [3, 6]: 0.56 ± 0.10 % IA/g
- Lung [3, 6]: 0.21 ± 0.03 % IA/g
- Muscle [3, 6]: 0.05 ± 0.01 % IA/g
- Salivary glands [3, 6]: 0.56 ± 0.37 % IA/g
- Spleen [3, 6]: 0.32 ± 0.03 % IA/g
- Stomach [3, 6]: 0.18 ± 0.13 % IA/g
- Tumor-to-blood [3, 6]: 337 ± 40.4
- Tumor-to-kidney [3, 6]: 8.88 ± 0.99
- Tumor-to-liver [3, 6]: 98.3 ± 21.1
- PC-3 flu Tumor ([3]; 24 h p.i.): 0.17 ± 0.01 % IA/g
- PC-3 PIP Tumor ([3]; 24 h p.i.): 52.4 ± 2.35 % IA/g
- whole-body retention of radioactivity [4]: 17%
